Assay results published in patent US20220323471A1 (priority 2019, published 2022).
Entries after “also recorded” stand apart in the source; their conditions may differ.

Legend:
Sendai Virus (SeV) = experiment: Sendai Virus infection and IFN-β production in CHME3 cells; assay type: cell-based; details: SeV MOI 1 and 10, DGP 1 μM, NH4Cl 20 mM
Method: The Flaviviridae family of viruses encode a glycoprotein that is necessary to achieve fusion at the endosomal/lysosomal membranes, the step that releases viral components into the cytoplasm. […] Instead, SeV fuses at the plasma membrane. To this end, IFN-β production and viral infection were measured in CHME3 cells infected with SeV at an MOI 1 and 10 in the presence of DGP (1 μM) or 20 mM NH4Cl.
(§1) To detect viral copies of ZIKV and Sendai Virus (SeV) by qRT-PCR, cells were seeded in 24-well plates, with or without DGP treatment, and infected with the virus at the indicated MOI for 48 h. After the incubation period, total RNA from HT1080, VERO, and CHME3 cells was isolated and purified using Trizol (Invitrogen). For detection of ZIKV viral load in brain and spleen, 3 mice were sacrificed at 6 days post-infection and total RNA was extracted from the brain and spleen. For cDNA synthesis, 1 ng of total RNA was reverse transcribed. The reaction mixture included 1 mM of deoxyribonucleotide phosphates (dNTPs), 2 nM of the specific reverse primer of ZIKV or SeV, 1× M-MULV buffer, 10 U M-MuLV RT (BioLabs), and 2 U of RNase Inhibitor. The reaction mixture was incubated for 1 hour at 42° C. followed by 20 min at 65° C. to inactivate the enzyme. For actin detection, Oligo-dT was used to reverse transcribe total RNA.
ZIKV RNA levels were measured using real-time PCR. HT1080 and VERO cells were challenged by ZIKV MR766 at an MOI of 1 in the presence of DGP. At 48 hours post-challenge, cells were lysed and total RNA was extracted using trizol. Total RNA was used to determine the levels of ZIKV RNA by real-time PCR using specific primers against ZIKA. qRT-PCR was carried out using SYBR green in a 20-μl final volume using a MASTERCYCLER proS machine. The primers used to detect ZIKV were: SEQ ID NO. 1: 5′-TT […]-3′-Forward (Genome Position 941-964) and SEQ ID NO. 2: 5′-[…]-3′-Reverse (Genome position 1123-1103) (AY632535.2). For the detection of SeV, the following primers were used: SEQ ID NO. 3: 5′-[…]-3′-Forward (Genome position 210-233) and SEQ ID NO. 4: 5′-[…]-3′-Reverse (Genome position 332-307) (M30202. Genome position 210-332) (Wagner, A. M. et al. 2003, “Detection of sendai virus and pneumonia virus of mice by use of fluorogenic nuclease reverse transcriptase polymerase chain reaction analysis.” Comp Med 53(2): 173-177). For the detection of IFN-β the following primers were used: SEQ ID NO. 5: Forward 5-[…]-3′ (Genome position 644-668) and SEQ ID Na 6: Reverse 5′-[…]-3′ (Genome position 718-697) (NM_002176.2) and for actin detection: SEQ ID NO. 7: 5′-[…]-′3-Forward and SEQ ID NO. 8: 5′-[…]′3-Reverse. ZIKA viral RNA levels were normalized to actin (upper panels). […]

WNV-RVP = assay type: cell-based, West Nile virus; details: VERO cells; DGP 1 μM; NH4Cl 20 mM
ZIKV = ZIKV viral load in brain and spleen of challenged mice (qRT-PCR); assay type: in vivo, mouse; details: 1 mg/kg; six days post-challenge
Method: The effect of DGP on viral replication in the brain and spleen was investigated in ZIKV-challenged mice (FIG. 13). To this end, viral loads were determined by qRT-PCR using specific primers against the ZIKV genome six days post-challenge.
as §1

TBEV-RVP = assay type: cell-based, tick-borne encephalitis virus

For `COc1cc2c(OC3OC(C)C(O)C(O)C3O)c3c(c(-c4ccc5c(c4)OCO5)c2cc1OC)C(=O)OC3` (stereo not drawn) [DGP, 6-deoxyglucose-diphyllin], the “IFN-β production in SeV-infected cells” value (Sendai Virus (SeV)) was “did not inhibit; also recorded: increased induction”, the “SeV infection / viral replication” value (Sendai Virus (SeV)) was “does not inhibit; also recorded: increased viral replication” and the “WNV RVP infection” value (WNV-RVP) was “almost undetectable”. The “viral replication in the brain” value (ZIKV) was “completely inhibited”, the “viral replication in the spleen” value (ZIKV) was “low levels of viral replication were detected” and the “TBEV RVP infection” value (TBEV-RVP) was “almost undetectable”.
